Data reported in patent publication US20090069417A1, “CAROTENOID OXIDATION PRODUCTS AS CHEMOPREVENTIVE AND CHEMOTHERAPEUTIC AGENTS” (priority 2005, published 2009).

What was measured:
[1] = tested on: HL-60 human promyelocytic leukemia cells; conditions: HL-60 cells; cited from earlier work
[2] = tested on: WB-F344 rat liver epithelial cells; conditions: cited from earlier work
MCF-7 and T47D cells = assay: Cell proliferation, [3H]thymidine incorporation, mammary cancer cells (FIG. 2B); format: cell-based, human; conditions: compared with lycopene
Procedure: MCF-7, human mammary cancer cells were purchased from American Type Culture Collection (Rockwell, Md.). MCF-7 cells were grown in DMEM containing penicillin (100 units/mL), streptomycin (0.1 mg/mL), nystatin (12.5 Ag/mL), 0.6 μg/mL insulin, and 10% FCS. T47D, human mammary cancer cell line, were provided by Dr. Yafa Keidar (Tel-Aviv University, Israel) and were grown in DMEM medium. LNCaP human prostate cancer cells were purchased from American Type Culture Collection (Rockwell, Md.) and were grown on RPMI medium. The medium contained penicillin (100 U/ml), streptomycin (0.1 mg/ml) nystatin (12.5 μg/ml), and 10% fetal calf serum (FCS), and 6 μg/ml insulin. Prior to each experiment, the cells were depleted of steroid hormones and maintained for 3-5 days in phenol red-free DMEM supplemented with 10% DCC FCS.
MCF-7, LNCaP and T47D cells were seeded in 96-well plates. After one day, the medium was replaced with one containing the various materials. In each day of the experiment one plate was used for the thymidine incorporation assay. Thymidine incorporation was determined as follows: 2.5 μCi/well of [^3H]thymidine (specific radioactivity 5 mCi/mmol) containing cold thymidine (100 μM) was added and the plate were incubated (37° C.) for 1 hr (MCF-7 cells) or for 3 hr (LNCaP, T47D cells). […] Radioactivity was determined by a radioactive image analyzer (BAS 1000, Fuji, Japan). […]

[3] = tested on: antioxidant response element (ARE) in MCF-7 and T47D cells; assay: ARE induction in human breast cancer cell lines (FIG. 2A); format: cell-based; conditions: compared with lycopene
Procedure: Cell transfection and reporter gene assays were generally carried out as follows. Some variations may be adopted for different cell lines: Cells were transfected using TFx-50 reagent (Promega, Madison, Wis.) with ca. 0.07 μg of DNA containing 0.05 μg of reporter plasmid and 0.02 μg of Renilla luciferase expression vector (P-RL-null vector, Promega) as an internal standard. For this purpose, cells were seeded in 24-well plates (100,000 cells per well). After 1 day, cells were rinsed twice with the appropriate culture medium without serum, followed by the addition of 0.2 mL of medium containing DNA and TFx-50 reagent at a charge ratio of 1:3. The cells were then incubated for 30 minutes at 37° C. in 95% air/5% CO2. Four hundred microliters of medium containing 3% charcoal-stripped delipidated FCS were added and incubation continued for 8 hours. This was then replaced by medium supplemented with 3% delipidated FCS and the test compounds and cells were incubated for another 16 hours. Cell extracts were prepared for luciferase reporter assay (Dual Luciferase Reporter Assay System, Promega) according to the manufacturer's instructions. […]

[4] = tested on: antioxidant response element (ARE); assay: ARE reporter gene (luciferase) assay, transient transfection; format: cell-based, human; conditions: FIG. 1, mean of 3-6 experiments, expressed as ratio to stimulation obtained with tBHQ, compared in words
Description: ARE reporter constructs were provided by Dr. J. J. Gipp (University of Wisconsin Medical School, Madison, Wis.; Ref 18). NQO1hARE-tk-luc and GCShARE4-tk-luc contain sequences of the active response elements from the promoters of human NQO1 and GCS heavy subunit, respectively. GCShARE4m-tk-luc, a non-active mutant form of the latter construct, contains a single base mutation in the relevant sequence.
Cell transfection and reporter gene assays were generally carried out as follows. Some variations may be adopted for different cell lines: Cells were transfected using TFx-50 reagent (Promega, Madison, Wis.) with ca. 0.07 μg of DNA containing 0.05 μg of reporter plasmid and 0.02 μg of Renilla luciferase expression vector (P-RL-null vector, Promega) as an internal standard. For this purpose, cells were seeded in 24-well plates (100,000 cells per well). After 1 day, cells were rinsed twice with the appropriate culture medium without serum, followed by the addition of 0.2 mL of medium containing DNA and TFx-50 reagent at a charge ratio of 1:3. The cells were then incubated for 30 minutes at 37° C. in 95% air/5% CO2. Four hundred microliters of medium containing 3% charcoal-stripped delipidated FCS were added and incubation continued for 8 hours. This was then replaced by medium supplemented with 3% delipidated FCS and the test compounds and cells were incubated for another 16 hours. Cell extracts were prepared for luciferase reporter assay (Dual Luciferase Reporter Assay System, Promega) according to the manufacturer's instructions.
The effects of lycopene and several lycopene derivatives on antioxidant response element (ARE) induction were tested in all of the cancer cell lines mentioned above. The assay employed measures the transcriptional activity of the antioxidant response element which is activated by the Nrf2 transcription factor, and its activation by carotenoids and their derivatives. Parts of a promoter of the genes of interest were fused to a luciferase reporter gene as described in Materials and Methods. The constructs were transfected into the cells. Cells were incubated with carotenoids or derivatives and activation of transcription was measured.
The results are depicted in FIG. 1 as the mean of 3-6 experiments. The standard errors of the mean (SEs) (not shown) were not higher than 10% of the mean. In order to decrease the variation between experiments, the results are expressed as the ratio of stimulation obtained with each specific derivative to that obtained with tBHQ (a well known positive control in this system).

[5] = tested on: reporter genes fused with ARE sequences; conditions: transiently transfected cancer cells; cited from earlier work
[6] = tested on: mammary, endometrial, lung and leukemic cancer cell growth; conditions: lung and leukemic cancer cells, dose-dependent, read-out: IC50, inhibition of cancer cell growth; cited from earlier work

CC(=O)/C=C/C=C(C)/C=C/C=O [(E,E,E)-4-methyl-8-oxo-2,4,6-nonatrienal]
induction of apoptosis [1]: induces apoptosis

C\C(C=O)=C/C=C/C=C(C)/C=C/C=C(C)/C=C/C=O [2,7,11-trimethyl-tetradecahexaene-1,14-dial]
stimulation of gap junctional communication (GJC) [2]: stimulates gap junctional communication

CC(/C=C/C=O)=C\C=C\C=C(C)\C=C\C=O [10,10′, diapo-10,10′-lycopendial]
inhibition of cell proliferation (MCF-7 and T47D cells): more active than lycopene
ARE induction [3]: more active than lycopene
stimulation of transcription of ARE reporter genes [4]: more active than the parent molecule lycopene
stimulation of transcription of ARE reporter genes ([4]; listed as 10′10): most active

diapo-8′,15-lycopendial
stimulation of transcription of ARE reporter genes [4]: more active than the parent molecule lycopene
stimulation of transcription of ARE reporter genes ([4]; listed as 8′15): also active

CC(C)=CCC/C(C)=C/C=C/C(C)=C/C=C/C(C)=C/C=C/C=C(C)/C=C/C=C(C)/C=C/C=C(\C)CCC=C(C)C [lycopene, Lycopene]
transactivation of ARE reporter genes [5]: capable of transactivating the expression of reporter genes fused with ARE sequences
IC50 [6]: ~2000 nM

C\C(C=O)=C/C=C/C=C(C)/C=C/C=C(\C)C=O [8′,12, diapo-8′,12-lycopendial]
stimulation of transcription of ARE reporter genes [4]: more active than the parent molecule lycopene
stimulation of transcription of ARE reporter genes ([4]; listed as 8′12): most active

C\C(C=O)=C/C=C/C=C(\C)C=O [12,12′, diapo-12,12′-lycopendial]
stimulation of transcription of ARE reporter genes [4]: much less active

C\C(C=O)=C/C=C/C(C)=C/C=C/C=C(C)/C=C/C=C(\C)C=O [8,8′, diapo-8,8′-lycopendial]
inhibition of cell proliferation (MCF-7 and T47D cells): less active
ARE induction [3]: less active
stimulation of transcription of ARE reporter genes [4]: much less active
